Measurements taken from PubChem BioAssay (NCI).
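Briefly, cells in 96-well plates were exposed to five compound concentrations for 48 h, and endpoints were estimated by linear interpolation. GI50 = concentration required for 50% inhibition of growth. TGI denotes the concentration required for complete inhibition of growth.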

How the values were obtained:
Assay in all cases: growth of human tumour cells (NCI), 48 h
[1] = system: 786-0 renal
[2] = system: A498 renal
[3] = system: A549 NSCLC
[4] = system: ACHN renal
[5] = system: BT-549 breast
[6] = system: CAKI-1 renal
[7] = system: CCRF-CEM leukemia
[8] = system: COLO 205 colon
[9] = system: DU-145 prostate
[10] = system: EKVX NSCLC
[11] = system: HCC-2998 colon
[12] = system: HCT-116 colon
[13] = system: HCT-15 colon
[14] = system: HL-60(TB) leukemia
[15] = system: HOP-62 NSCLC
[16] = system: HOP-92 NSCLC
[17] = system: HS 578T breast
[18] = system: HT29 colon
[19] = system: IGROV1 ovarian
[20] = system: K-562 leukemia
[21] = system: KM12 colon
[22] = system: LOX IMVI melanoma
[23] = system: M14 melanoma
[24] = system: MALME-3M melanoma
[25] = system: MCF7 breast
[26] = system: MDA-MB-231 breast
[27] = system: MDA-MB-435
[28] = system: MDA-MB-468 breast
[29] = system: MOLT-4 leukemia
[30] = system: NCI-H226 lung
[31] = system: NCI-H23 lung
[32] = system: NCI-H460 lung
[33] = system: NCI-H522 lung
[34] = system: NCI/ADR-RES ovarian
[35] = system: OVCAR-3 ovarian
[36] = system: OVCAR-4 ovarian
[37] = system: OVCAR-5 ovarian
[38] = system: OVCAR-8 ovarian
[39] = system: PC-3 prostate
[40] = system: RPMI-8226 leukemia
[41] = system: RXF 393 renal
[42] = system: SF-268 CNS
[43] = system: SF-295 CNS
[44] = system: SF-539 CNS
[45] = system: SK-MEL-2 melanoma
[46] = system: SK-MEL-28 melanoma
[47] = system: SK-MEL-5 melanoma
[48] = system: SK-OV-3 ovarian
[49] = system: SN12C renal
[50] = system: SNB-19 CNS
[51] = system: SNB-75 CNS
[52] = system: SR leukemia
[53] = system: SW-620 colon
[54] = system: T-47D breast
[55] = system: TK-10 renal
[56] = system: U251 CNS
[57] = system: UACC-257 melanoma
[58] = system: UACC-62 melanoma
[59] = system: UO-31 renal

With `COc1cc(/C=C/C(=O)c2ccc(NC(=O)CN3C(=O)NC(C)(c4ccccc4)C3=O)cc2)cc(OC)c1OC` (stereo not drawn) the GI50 [1] was 8.43 µM, the TGI [1] was 23.3 µM and the GI50 [2] was 31.6 µM. The TGI [2] was > 100 µM, the GI50 [3] was 4.53 µM and the TGI [3] was > 100 µM. The GI50 [4] was 13.6 µM, the TGI [4] was 46.7 µM and the GI50 [5] was 4.73 µM. For the same compound, the TGI [5] was 21.2 µM, the GI50 [6] was 8.66 µM and the TGI [6] was > 100 µM. For the same compound, the GI50 [7] was 2.9 µM, the TGI [7] was > 100 µM and the GI50 [8] was 13.7 µM. It also gave a TGI [8] of 30.4 µM, a GI50 [9] of 3.66 µM and a TGI [9] of 15 µM. It also gave a GI50 [10] of 12.9 µM, a TGI [10] of 75.8 µM and a GI50 [11] of 2.92 µM. The TGI [11] was 8.97 µM, the GI50 [12] was 2.27 µM and the TGI [12] was 8.61 µM. For the same compound, the GI50 [13] was 11.7 µM, the TGI [13] was 48.9 µM and the GI50 [14] was 2.26 µM. It also gave a TGI [14] of 8.23 µM, a GI50 [15] of 15.8 µM and a TGI [15] of 93.4 µM. For the same compound, the GI50 [16] was 34 µM, the TGI [16] was > 100 µM and the GI50 [17] was 32.6 µM. The TGI [17] was > 100 µM, the GI50 [18] was 3.75 µM and the TGI [18] was 13 µM. It also gave a GI50 [19] of 4.85 µM, a TGI [19] of 25.2 µM and a GI50 [20] of 3.16 µM. For the same compound, the TGI [20] was > 100 µM, the GI50 [21] was 3.69 µM and the TGI [21] was 17.8 µM. It also gave a GI50 [22] of 3.09 µM, a TGI [22] of 13.2 µM and a GI50 [23] of 6.67 µM. The TGI [23] was 22.9 µM, the GI50 [24] was 14.6 µM and the TGI [24] was 44.3 µM. It also gave a GI50 [25] of 3.06 µM, a TGI [25] of 13.5 µM and a GI50 [26] of 4.52 µM. The TGI [26] was 25.4 µM, the GI50 [27] was 3.64 µM and the TGI [27] was 47.9 µM. For the same compound, the GI50 [28] was 3.2 µM, the TGI [28] was 12.6 µM and the GI50 [29] was 2.57 µM. For the same compound, the TGI [29] was 8.25 µM, the GI50 [30] was 19.3 µM and the TGI [30] was > 100 µM. It also gave a GI50 [31] of 4.61 µM, a TGI [31] of 19.4 µM and a GI50 [32] of 3.93 µM. The TGI [32] was 22.7 µM, the GI50 [33] was 9 µM and the TGI [33] was 23.7 µM. For the same compound, the GI50 [34] was > 100 µM, the TGI [34] was > 100 µM and the GI50 [35] was 4.16 µM. For the same compound, the TGI [35] was 21 µM, the GI50 [36] was 13.4 µM and the TGI [36] was > 100 µM. For the same compound, the GI50 [37] was 10.5 µM, the TGI [37] was 26.7 µM and the GI50 [38] was 5.03 µM. For the same compound, the TGI [38] was > 100 µM, the GI50 [39] was 10.8 µM and the TGI [39] was > 100 µM. It also gave a GI50 [40] of 2.32 µM, a TGI [40] of 10.2 µM and a GI50 [41] of 3.01 µM. It also gave a TGI [41] of 12.2 µM, a GI50 [42] of 8.39 µM and a TGI [42] of 90.8 µM. For the same compound, the GI50 [43] was 14.3 µM, the TGI [43] was 31.8 µM and the GI50 [44] was 2.23 µM. For the same compound, the TGI [44] was 5.69 µM, the GI50 [45] was 17.5 µM and the TGI [45] was 40.7 µM. The GI50 [46] was 14.6 µM, the TGI [46] was 32.1 µM and the GI50 [47] was 9.99 µM. The TGI [47] was 21.5 µM, the GI50 [48] was 37.4 µM and the TGI [48] was > 100 µM. It also gave a GI50 [49] of 12.9 µM, a TGI [49] of 42 µM and a GI50 [50] of 14.9 µM. It also gave a TGI [50] of 32.9 µM, a GI50 [51] of 5.33 µM and a TGI [51] of 84.5 µM. For the same compound, the GI50 [52] was 1.93 µM, the TGI [52] was > 100 µM and the GI50 [53] was 4.35 µM. The TGI [53] was 20.8 µM, the GI50 [54] was 6.56 µM and the TGI [54] was 69.9 µM. The GI50 [55] was 46.6 µM, the TGI [55] was > 100 µM and the GI50 [56] was 2.7 µM. The TGI [56] was 12.4 µM, the GI50 [57] was 11.6 µM and the TGI [57] was 28 µM. It also gave a GI50 [58] of 11.7 µM, a TGI [58] of 24.8 µM and a GI50 [59] of 17.3 µM. For the same compound, the TGI [59] was 74.1 µM.
